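Dose response: 5 concentrations. Exposure: 48 h. Format: 96-well plates. Endpoint: linear interpolation; highest concentration if not reached. GI50 marks 50% less growth.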 Active and inactive are the calls of the source. Cut-off read from the data, not from the text of the source: active = GI50 up to about 1.1 µM and inactive = higher.
Columns and labels:
Assay in all cases: NCI tumour cell line growth inhibition, 48 h
SN12C = system: SN12C
ACHN = system: ACHN
HCC 2998 = system: HCC 2998
DU-145 = system: DU-145
UACC-257 = system: UACC-257
LOX IMVI = system: LOX IMVI
NCI-H460 = system: NCI-H460
HOP-62 = system: HOP-62
COLO 205 = system: COLO 205
SF-268 = system: SF-268
U-251 = system: U-251
K562 = system: K562
HL-60 = system: HL-60
EKVX = system: EKVX
SNB-19 = system: SNB-19
NCI-H226 = system: NCI-H226
SF-539 = system: SF-539
NCI-H522 = system: NCI-H522
M14 = system: M14
SK-MEL-2 = system: SK-MEL-2

Measured: GI50

CCOC(=O)Cc1nc2nn(Cc3ccccc3)cc2c(=O)[nH]1
inactive: SN12C > 100 µM | ACHN > 100 µM | HCC 2998 > 100 µM | DU-145 > 100 µM | UACC-257 > 100 µM | LOX IMVI > 100 µM | NCI-H460 > 100 µM | HOP-62 > 100 µM | COLO 205 > 100 µM | SF-268 > 100 µM | U-251 > 100 µM | K562 > 100 µM | HL-60 > 100 µM | EKVX > 100 µM | SNB-19 > 100 µM | NCI-H226 > 100 µM | SF-539 > 100 µM

C=CC[C@@H]1C=C[C@@H](C(=O)OC)n2c(=O)n(-c3ccccc3)c(=O)n21
inactive: SN12C > 100 µM | ACHN > 100 µM | HCC 2998 > 100 µM | NCI-H522 > 100 µM | DU-145 > 100 µM | UACC-257 > 100 µM | LOX IMVI > 100 µM | HOP-62 > 100 µM | COLO 205 > 100 µM | SF-268 > 100 µM | U-251 > 100 µM | K562 > 100 µM | EKVX > 100 µM | M14 > 100 µM | SNB-19 > 100 µM | NCI-H226 > 100 µM | SF-539 > 100 µM

COc1ccc(C2=NNC(=O)c3ccccc3N2c2nc(-c3cccs3)nc3ccc(Br)cc23)cc1
inactive: SN12C 56 µM | ACHN 61.2 µM | NCI-H522 64.9 µM | DU-145 39.9 µM | UACC-257 51.9 µM | LOX IMVI 27.1 µM | NCI-H460 40.4 µM | HOP-62 17.6 µM | COLO 205 73.8 µM | SF-268 31 µM | U-251 28.8 µM | K562 99.5 µM | HL-60 > 100 µM | EKVX 24.6 µM | SK-MEL-2 78.9 µM | M14 37.4 µM | SNB-19 30.1 µM | NCI-H226 19.8 µM | SF-539 16.7 µM

Brc1cccc(/N=N/N2CCCC2)c1
inactive: SN12C > 100 µM | ACHN > 100 µM | NCI-H522 68.9 µM | DU-145 > 100 µM | UACC-257 > 100 µM | LOX IMVI 77.1 µM | NCI-H460 > 100 µM | HOP-62 > 100 µM | COLO 205 > 100 µM | SF-268 > 100 µM | U-251 80.5 µM | K562 48.9 µM | HL-60 16.4 µM | EKVX 97.9 µM | SK-MEL-2 > 100 µM | M14 > 100 µM | SNB-19 > 100 µM | NCI-H226 > 100 µM | SF-539 > 100 µM

Cc1ccc(S(=O)(=O)Oc2nc3nc4ccccc4nc3nc2OS(=O)(=O)c2ccc(C)cc2)cc1
inactive: SN12C > 100 µM | ACHN > 100 µM | HCC 2998 > 100 µM | NCI-H522 > 100 µM | DU-145 > 100 µM | UACC-257 > 100 µM | NCI-H460 > 100 µM | COLO 205 > 100 µM | SF-268 > 100 µM | U-251 > 100 µM | HL-60 > 10 µM | EKVX 13.6 µM | SK-MEL-2 > 100 µM | M14 > 100 µM | SNB-19 > 100 µM | NCI-H226 > 100 µM | SF-539 > 100 µM

CN1CCC23c4c5ccc(O)c4OC2c2[nH]c4ccccc4c2CC3(O)C1C5 (stereo not given)
inactive: SN12C 70.5 µM | ACHN 24.4 µM | HCC 2998 17.5 µM | NCI-H522 37 µM | DU-145 97.7 µM | UACC-257 18.5 µM | LOX IMVI 21.5 µM | NCI-H460 29.2 µM | HOP-62 > 100 µM | COLO 205 17.1 µM | SF-268 32.1 µM | U-251 22.5 µM | K562 14 µM | EKVX 92.9 µM | SK-MEL-2 20.6 µM | M14 17.7 µM | SNB-19 65.5 µM

Cc1c2c(c(O)c3c(O)cccc13)C(=O)C1(O)C(=O)C(C(=O)NCNc3ccc(C(N)=O)cn3)=C(O)C(N(C)C)C1C2 (stereo not given)
inactive: SN12C 4.78 µM | HCC 2998 3.07 µM | DU-145 4.39 µM | UACC-257 3.66 µM | LOX IMVI 4.78 µM | HOP-62 6 µM | COLO 205 6.28 µM | SF-268 3.61 µM | U-251 2.6 µM | K562 2.4 µM | EKVX 4.33 µM | SK-MEL-2 6.95 µM | M14 3.63 µM | NCI-H226 2.94 µM | SF-539 2.52 µM

Cc1c(C=C(C#N)C#N)c(=O)n(C)c(=O)n1C
inactive: SN12C > 100 µM | ACHN > 100 µM | NCI-H522 31.4 µM | DU-145 > 100 µM | UACC-257 > 100 µM | LOX IMVI > 100 µM | NCI-H460 > 100 µM | HOP-62 > 100 µM | COLO 205 > 100 µM | SF-268 > 100 µM | U-251 > 100 µM | K562 > 100 µM | HL-60 > 100 µM | EKVX 81.5 µM | SK-MEL-2 > 100 µM | M14 > 100 µM | SNB-19 > 100 µM | NCI-H226 > 100 µM | SF-539 > 100 µM

Source: ChEMBL document CHEMBL1201862, “PubChem BioAssay data set” (2004)
